Assays:
[1] = tested on: ovariectomized (OVX) Sprague-Dawley rats; assay: Vaginal histology and histomorphometry after 2 weeks vaginal suppositories; type: in vivo, rat; conditions: vaginal suppositories 2 weeks; for vaginal epithelial thickness / vaginal muscularis thickness / vaginal lamina propria thickness / vaginal thickness (all three layers of the vagina) / lamina propria collagen fiber compactness: mean±SD; for vaginal epithelial thickness: placebo 57±18; for vaginal muscularis thickness: placebo 121±44; for vaginal lamina propria thickness: placebo 179±71; for vaginal thickness (all three layers of the vagina): placebo 358±86; for vaginal epithelial cornification rate: placebo 0%; for lamina propria collagen fiber compactness: scale 0-5 (0=loose, 5=tight), placebo 4.5±0.6
Experimental: Ten to 12-weeks old female ovariectomized (OVX) Sprague-Dawley rats were utilized for the experiments. The animals were acclimatized to the environmental conditions before starting the experiment. The animals were housed individually and were allowed free access to water and rodent food. […] The suppositories were prepared according to the fusion method, using a polypeg suppository base ([…]., USA). […] Using a microwave, the suppository base was melted in a small beaker for 3 min and then transferred and kept into a water bath at a temperature of 55° C. The proper amount of above reagent was added to the liquefied base and meticulously crushed with a smooth rounded-end glass rod for about 20 min to make the solution to be even and clear. A pipette tip was used to suck some amount of solution and push it into a plastic tube with a diameter of 3.5 mm, and the tube was immediately left on the flat surface of an ice bucket. The suppository turned to white in color when it was solid. The moulded suppository was then pushed out of the tube using a round rod. […] After 30 min of cooling at room temperature, the suppositories were stored at 4° C. in a closed chamber until use. They were left to reach room temperature before use. The day after the last treatment the rats were overnight fasted and then sacrificed. Macroscopic measurement (genital hiatus, vaginal length) were taken and the vagina was dissected out carefully to avoid any injury to the vagina. The mid section of the vagina was utilized for histology (H and E stain, Masson's trichrome stain) and immunofluorescence and the rest of the vagina was used for RNA extraction and RT-PCR. […] For each animal, a 4 μm-thick paraffin section was cut and stained with haematoxylineosin and with Masson's trichrome stain for morphological examination. […] The cornification was determined by the presence of a keratin layer on the vaginal epithelium. Measurements of the different vaginal layers were performed on the fifth segment of the vagina, which is approximately halfway between the middle region and the portio vaginalis uteri. […] Images were captured with a color digital camera and quantified using ImageJ software was used. […] The thickness of the lamina propria was obtained by deducting the thickness of the epithelium and muscularis from total vaginal thickness.

[2] = tested on: primary vaginal smooth muscle cells; assay: MTT proliferation assay; type: cell-based, human; conditions: mean±SD
Experimental: After removal of the uterus, full-thickness samples of the anterior vaginal wall were obtained from the vaginal cuff at the anterior midline portion under sterile condition from four women without POP. Specimens were preserved in cold DMEM/F12 (Invitrogen, Carlsbad, Calif.) supplemented with 10% FBS, 1 mM glutamine, 0.075% Na2HCO3 and 100 ug/ml penicillin-streptomycin. After a maximum time of 4 hours from tissue harvesting the tissue was mechanically minced in cold cultured media and the fragments were washed 3 times in PBS and were plated onto fibronectin coated plastic dishes (Thermo Fischer Scientific, Rochester, N.Y.). After the initial outgrowth, clones with a morphology resembling the smooth muscle phenotype were patch cloned and propagated in culture. For cell characterization a 5000 cell/well fibronectin coated 8-well chamber slide was plated. Once cell confluence reached 80% the cells were washed twice with PBS and fixed in 4% PFA for 30 min at 37° C. To verify the intracytoplasmic distribution of F-actin fibers 4% PFA fixed cells were exposed to a permeabilizing solution of Tryton X100 0.1% and Rhodamine Phalloidin for 45 min at 37° C. Slides were then treated with mounting media (Vectashield, Vector Laboratories, Burlingame, Calif.) containing DAPI for nucleic acid staining and image acquisition was performed in glycerol immersion by confocal microscopy. In addition, the 8-well chamber slides were used to carry out the immunocytochemical staining. After blockage of endogenous peroxidase activity with a solution of hydrogen peroxide and methanol, slides were sequentially treated with the primary mouse antibody, biotinylated anti-mouse immunoglobulin, and Streptavidin-biotin-peroxidase complex (LSAB™+/HRP kit, Dako, Carpinteria, Calif.). Diaminobenzidine was used as a chromogen in the presence of hydrogen peroxide. Slides were then counterstained with hematoxylin. All reactions were carried out at room temperature (22° C.). To identify the SMC, anti-smooth muscle actin antibodies were used (monoclonal mouse, 1:250, 30 min incubation, clone 1A4, catalog #0851 Dako, Carpinteria, Calif.). Caldesmon expression was studied with a monoclonal mouse antibody, 1:100, 30 min incubation, (clone h-CD catalog #M3557 Dako, Carpinteria, Calif.). An antigen retrieval step was used for caldesmon using citrate buffer and a steamer for 30 min. As a negative control normal mouse serum was substituted for the antibody.
To perform the MTT proliferation assay, SMC from the fourth to sixth passages (5,000 cells per well) were cultured in 96-well culture plates (Costar, Cambridge, Mass.), in a total volume of 200 μL DMEM/F-12 with 10% FBS. Cells were incubated with zinc sulfate heptahydrate (Sigma, Saint Louis, Mo.) (10 μM, 20 μM and 50 μM), GW501516 (Alexis, Switzerland) (1 nM, 10 nM, 100 nM) in 96-well plates and cell proliferation was assessed by a 3-[4,5-dimethylthiazol-2-yl]-2,5-diphenyl tetrazoliumbromide (MTT) assay at 24 or 48 hrs utilizing a commercially available MTT assay kit (American Type Culture Collection, Catalog #30-1010K, Manassas, Va.). Treatment and control groups were performed in 6 replicate wells. The relative number of viable cells was determined at 24 or 48 hours by incubating the cells with 1 mg/mL of MTT for 4 hours. The live cells utilized MTT resulting in the accumulation of formazan crystals which were then solubilized with acid isopropanol (90% isopropyl alcohol, 2.5% SDS, 0.004 N HCL) for 1 hour. The optical density of the solution was measured at 570 nm.

Structure (SMILES)	vaginal epithelial thickness [1] [μm]	vaginal muscularis thickness [1] [μm]	vaginal lamina propria thickness [1] [μm]	vaginal thickness (all three layers of the vagina) [1] [μm]	vaginal epithelial cornification rate [1] [%]	lamina propria collagen fiber compactness [1] [relative units]	relative cell number (% of control) ([2]; 10 μM, 48 hrs of culture)	relative cell number (% of control) ([2]; 20 μM, 48 hrs of culture)	relative cell number (% of control) ([2]; 50 μM, 48 hrs of culture)	relative cell number (% of control) ([2]; 1 nM, 24 hrs of culture)	relative cell number (% of control) ([2]; 10 nM, 24 hrs of culture)	relative cell number (% of control) ([2]; 100 nM, 24 hrs of culture)
O.O.O.O.O.O.O.O=S(=O)([O-])[O-].[Zn+2] [zinc sulfate, zinc sulfate heptahydrate]	79±21	155±58	242±78	477±106	87	3.5±0.5	94.7±4.6 % of control	90.4±5.5 % of control	43.3±30.0 % of control			
Cc1cc(SCc2sc(-c3ccc(C(F)(F)F)cc3)nc2C)ccc1OCC(=O)O [GW501516, 2-[2-methyl-4-([4-methyl-2-[4-(trifluoromethyl)phenyl)-1,3-thiazol-5-yl]methylsulfanyl]phenoxy]acetic acid]	54±23	130±50	192±68	377±98	25	4.0±0.5				98.9±10.3 % of control	95.9±6.5 % of control	87.0±10.6 % of control
